Measured values as given in publication PMC5458211, “Mitochondrial VDAC1-based peptides: Attacking oncogenic properties in glioblastoma” (Oncotarget, 2017).
Non-standard residues stand in square brackets, D forms with d. Residues, ends and D or L forms follow the SMILES beside them.

Assays:
[1] = system: U-87MG sub-cutaneous xenograft tumors; experiment: Sub-cutaneous U-87MG xenograft, tumor growth; format: in vivo, human U-87MG in nude mice; conditions: s.c. U-87MG xenograft, 20 μM intra-tumoral every two days, end point, n=5
Procedure: Figure 3 VDAC1-based peptides inhibit tumor growth, cell proliferation, and invasion in a glioblastoma xenograft mice model A. Graphical representation of the xenograft experiment protocol used. U-87MG cells (3×10^6/mouse) were inoculated into male nude mice as described in Materials and Methods available online in Supplemental information. B, C. […] The calculated average tumor volumes are presented as means ± SE (n=5) (* p≤0.05, ** p≤0.01). C. The volume of peptide-treated tumors is presented as % of control for each indicated time. Results = mean ± SE (n=5) (* p≤0.05, ** […]). […] E. Quantitative analysis of Ki-67 positive cells. Results = mean ± SE (n=5) (*** p<0.001). […]
U-87MG glioblastoma cells (3 x10^6) were inoculated s.c. into the hind leg flanks of athymic eight-week old male nude mice (Envigo). Thirteen days post-inoculation, tumor volume was measured (100-130 mm^3) and mice were randomized into three groups (5 animals/group), treated with PBS containing 0.26% DMSO or peptide in PBS, 0.26% DMSO/20 μM every second day. […]
(Calbiochem, UK). […] Thirteen days post-inoculation, using various primary antibodies (sources and dilutions tumor volume was measured and calculated (100-130 as detailed in supplementary Table 2), followed by mm3) and mice were randomized into three groups (5 the appropriate HRP-conjugated secondary antibodies mice/group). […]

SH-SY5Y cells = experiment: Apoptosis by acridine orange/ethidium bromide staining, SH-SY5Y; format: cell-based, human; conditions: 3 h, Suppl Fig 2B
Procedure: […] The cells were then trypsinized, centrifuged (1500xg, 5 min), washed with PBS and analyzed for cell death using propidium iodide (PI) staining and flow cytometer (Beckton-Dickinson, San Jose, CA) and BD CellQuest Pro software. Apoptotic cell death was also analyzed by PI and annexin V-FITC staining, and by acridine orange and ethidium bromide staining and light microscopy (Olympus LX2-KSP).
Supplementary Figure 2: Mode of action of VDAC1-based peptides. […]
detachment. SH-SY5Y cells (4×10^4/ml) were grown on cover slips, transfected with plasmid pEGFP-HK-I and after 24 h, were incubated […]
The final DMSO concentration in control and peptide-treated cells was 0.07%. Fixed cells were stained with DAPI and visualized by confocal microscopy (Olympus 1X81). Arrows indicate cells […]
showing diffusion of HK-I-GFP. B-C. […] B. SH-SY5Y cells were treated with the indicated […]
Arrows and arrowheads indicate cells with membrane blebbing (early apoptotic state) and late apoptotic states, respectively. C. Morphological analysis of apoptosis by electron microscopy (EM). For transmission EM, U-87MG cells (1.6 x10^6 /ml) were incubated with the indicated concentrations of D-ΔN-Ter-Antp peptide or DMSO (0.3% final concentration) for 6 h in serum-free medium. […]

| SMILES | lower average tumor volume relative to PBS/DMSO [1] | apoptosis induction, SH-SY5Y (SH-SY5Y cells) |
| --- | --- | --- |
| CC[C@@H](C)[C@@H](NC(=O)[C@@H](CCCCN)NC(=O)[C@H](NC(=O)[C@@H](CCC(N)=O)NC(=O)[C@@H](CCCNC(=N)N)NC(=O)[C@@H](CC(C)C)NC(=O)CNC(=O)[C@@H](Cc1ccccc1)NC(=O)CNC(=O)[C@@H](Cc1ccc(O)cc1)NC(=O)CNC(=O)[C@@H](CCCCN)NC(=O)[C@H](NC(=O)[C@@H](Cc1ccccc1)NC(=O)[C@H](NC(=O)[C@@H](CC(=O)O)NC(=O)[C@H](N)CCCNC(=N)N)C(C)C)[C@H](C)O)[C@H](C)CC)C(=O)N[C@H](Cc1c[nH]c2ccccc12)C(=O)N[C@H](Cc1ccccc1)C(=O)N[C@H](CCC(N)=O)C(=O)N[C@H](CC(N)=O)C(=O)N[C@H](CCCNC(=N)N)C(=O)N[C@H](CCCNC(=N)N)C(=O)N[C@H](CCSC)C(=O)N[C@H](CCCCN)C(=O)N[C@H](Cc1c[nH]c2ccccc12)C(=O)N[C@H](CCCCN)C(=O)N[C@H](CCCCN)C(=O)O [D-ΔN-Ter-Antp] (H-[dR][dD][dV][dF][dT][dK]G[dY]G[dF]G[dL][dR][dQ][dI][dK][dI][dW][dF][dQ][dN][dR][dR][dM][dK][dW][dK][dK]-OH; N-terminus and C-terminus assumed) | about 75% | – |
| CC[C@H](C)[C@H](NC(=O)[C@H](C)NC(=O)[C@@H](N)Cc1c[nH]cn1)C(=O)N[C@@H](Cc1ccc(O)cc1)C(=O)N1CCC[C@H]1C(=O)N[C@@H](CCCNC(=N)N)C(=O)N[C@@H](Cc1c[nH]cn1)C(=O)N[C@@H](CO)C(=O)N[C@@H](Cc1c[nH]c2ccccc12)C(=O)N[C@H](C(=O)N[C@@H](Cc1c[nH]c2ccccc12)C(=O)N[C@@H](CCC(=O)O)C(=O)N[C@H](CCCCN)C(=O)N[C@H](CCCCN)C(=O)N[C@H](CC(C)C)C(=O)N[C@H](CCC(=O)O)C(=O)N[C@@H](C(=O)N[C@H](C)C(=O)N[C@@H](C(=O)N[C@H](CC(N)=O)C(=O)N[C@H](CC(C)C)C(=O)N[C@H](C)C(=O)N[C@H](Cc1c[nH]c2ccccc12)C(=O)N[C@@H](C(=O)N[C@H](C)C(=O)NCC(=O)N[C@H](CC(N)=O)C(=O)N[C@H](CO)C(=O)N[C@H](CC(N)=O)C(=O)N[C@@H](CCCCN)C(=O)N[C@@H](Cc1c[nH]c2ccccc12)C(=O)N[C@H](C(=O)N[C@@H](Cc1c[nH]c2ccccc12)C(=O)N[C@@H](CCCCN)C(=O)O)[C@@H](C)O)[C@H](C)O)C(C)C)[C@H](C)O)[C@@H](C)O [Tf-D-LP4] | – | induce apoptosis |
